ChEMBL document CHEMBL1201862, “PubChem BioAssay data set” (2004)
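1) Cells in 96-well plates. 2) Compound, 48 h, 5 concentrations. 3) Linear interpolation between surrounding doses. 4) Unreached endpoint = highest concentration. GI50: concentration for 50% inhibition of growth.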 Active and inactive are the calls of the source. No stated cut-off is given here; in the data, active = GI50 up to about 1.1 µM and inactive = higher.

Legend:
Assay in all cases: NCI-60 cell line screen, 48 h
SN12C = system: SN12C
DU-145 = system: DU-145
UO-31 = system: UO-31
NCI/ADR-RES = system: NCI/ADR-RES
HCC 2998 = system: HCC 2998
A498 = system: A498
SW-620 = system: SW-620
OVCAR-3 = system: OVCAR-3
NCI-H23 = system: NCI-H23
MDA-N = system: MDA-N
SNB-75 = system: SNB-75
SK-MEL-5 = system: SK-MEL-5
BT-549 = system: BT-549
COLO 205 = system: COLO 205
SNB-19 = system: SNB-19
SF-539 = system: SF-539
LOX IMVI = system: LOX IMVI
HOP-92 = system: HOP-92
HL-60 = system: HL-60
SR = system: SR

Structure (SMILES) | GI50 (SN12C) | GI50 (DU-145) | GI50 (UO-31) | GI50 (NCI/ADR-RES) | GI50 (HCC 2998) | GI50 (A498) | GI50 (SW-620) | GI50 (OVCAR-3) | GI50 (NCI-H23) | GI50 (MDA-N) | GI50 (SNB-75) | GI50 (SK-MEL-5) | GI50 (BT-549) | GI50 (COLO 205) | GI50 (SNB-19) | GI50 (SF-539) | GI50 (LOX IMVI) | GI50 (HOP-92) | GI50 (HL-60) | GI50 (SR)
COc1cc(/N=N/N(C)C)c(C(C)c2c3cc(OC)c(OC)cc3cc[n+]2C)cc1OC (stereo not drawn) | 40.5 µM (inactive) | 62.7 µM (inactive) | > 100 µM (inactive) | > 100 µM (inactive) | 34.6 µM (inactive) | > 100 µM (inactive) | 85.7 µM (inactive) | 26.7 µM (inactive) | 41.6 µM (inactive) | 34.8 µM (inactive) | 31.6 µM (inactive) | 21.4 µM (inactive) | 46.9 µM (inactive) | 14.8 µM (inactive) | 42.3 µM (inactive) | 10.3 µM (inactive) | 25.2 µM (inactive) | – | – | –
CN(C)CCCNc1cnc2cc3ccccc3cc2n1 | 33.1 µM (inactive) | 41 µM (inactive) | – | – | 17.2 µM (inactive) | 17.5 µM (inactive) | 37.4 µM (inactive) | 17.6 µM (inactive) | 25.1 µM (inactive) | 32.8 µM (inactive) | 23.7 µM (inactive) | 19.6 µM (inactive) | 15.3 µM (inactive) | 18.3 µM (inactive) | 36.1 µM (inactive) | 23.5 µM (inactive) | 14.3 µM (inactive) | 23.5 µM (inactive) | 32.2 µM (inactive) | 61.1 µM (inactive)
COc1ccc(N2C(=O)CSC2c2cc3cc(Br)ccc3nc2Cl)cc1 (stereo not drawn) | > 50 µM (inactive) | > 50 µM (inactive) | > 50 µM (inactive) | 44.1 µM (inactive) | > 50 µM (inactive) | > 50 µM (inactive) | > 50 µM (inactive) | > 50 µM (inactive) | > 50 µM (inactive) | – | > 50 µM (inactive) | 37.4 µM (inactive) | > 50 µM (inactive) | > 50 µM (inactive) | > 50 µM (inactive) | > 50 µM (inactive) | 37.6 µM (inactive) | > 50 µM (inactive) | > 50 µM (inactive) | 18.7 µM (inactive)
COC(=O)c1ccc(NCc2c(O)ccc(O)c2Br)cc1Cl | 12.6 µM (inactive) | 16.2 µM (inactive) | 15.8 µM (inactive) | 12.2 µM (inactive) | 19.1 µM (inactive) | > 100 µM (inactive) | 12.2 µM (inactive) | 8.77 µM (inactive) | 16.6 µM (inactive) | 12 µM (inactive) | 23.1 µM (inactive) | 18.5 µM (inactive) | 11.2 µM (inactive) | 18.1 µM (inactive) | 25.9 µM (inactive) | 14.2 µM (inactive) | 13 µM (inactive) | 14.9 µM (inactive) | 1.69 µM (inactive) | –
CCc1nc2ccc(/N=N/N(C)C)cc2[nH]1 | > 100 µM (inactive) | > 100 µM (inactive) | > 100 µM (inactive) | > 100 µM (inactive) | > 100 µM (inactive) | – | > 100 µM (inactive) | > 100 µM (inactive) | > 100 µM (inactive) | > 100 µM (inactive) | > 100 µM (inactive) | > 100 µM (inactive) | > 100 µM (inactive) | > 100 µM (inactive) | > 100 µM (inactive) | – | – | – | – | –
Cc1cc(=O)nc(S(=O)(=O)NC(=S)Nc2ccc(Br)cc2)[nH]1 | > 100 µM (inactive) | > 100 µM (inactive) | > 100 µM (inactive) | > 100 µM (inactive) | > 100 µM (inactive) | > 100 µM (inactive) | > 100 µM (inactive) | > 100 µM (inactive) | > 100 µM (inactive) | – | > 100 µM (inactive) | > 100 µM (inactive) | > 100 µM (inactive) | > 100 µM (inactive) | > 100 µM (inactive) | > 100 µM (inactive) | – | 21 µM (inactive) | > 100 µM (inactive) | –
C=C(Nc1nc2ccc(C)cc2s1)C(=O)C(CC)C(=O)C(CC)CC1C(=O)NC(=O)NC1=O (stereo not drawn) | > 100 µM (inactive) | > 100 µM (inactive) | > 100 µM (inactive) | > 100 µM (inactive) | > 100 µM (inactive) | – | > 100 µM (inactive) | > 100 µM (inactive) | > 100 µM (inactive) | > 100 µM (inactive) | > 100 µM (inactive) | > 100 µM (inactive) | > 100 µM (inactive) | > 100 µM (inactive) | > 100 µM (inactive) | > 100 µM (inactive) | > 100 µM (inactive) | > 100 µM (inactive) | > 100 µM (inactive) | –
CC(C(=O)N1C(=O)N(C(=O)[C@H](C)C(O)c2ccccc2)[C@H](c2ccccc2)[C@H]1c1ccccc1)[C@@H](O)c1ccccc1 (stereo partly drawn) | 38.8 µM (inactive) | 50.5 µM (inactive) | 31.5 µM (inactive) | – | 36.7 µM (inactive) | 24.3 µM (inactive) | 45.2 µM (inactive) | – | 44.4 µM (inactive) | 20 µM (inactive) | 28 µM (inactive) | 14.9 µM (inactive) | 6.04 µM (inactive) | 18.7 µM (inactive) | 37.2 µM (inactive) | 22.2 µM (inactive) | – | 25.6 µM (inactive) | 22 µM (inactive) | 0.118 µM (active)
CC(C)CCc1c(Cl)nc(Cl)nc1Cl | 10.7 µM (inactive) | 17.3 µM (inactive) | 20.1 µM (inactive) | 28.2 µM (inactive) | 16.5 µM (inactive) | – | 1.4 µM (inactive) | 11.9 µM (inactive) | 8.97 µM (inactive) | 3.98 µM (inactive) | 10 µM (inactive) | 4.07 µM (inactive) | 4.1 µM (inactive) | – | 22 µM (inactive) | 24.8 µM (inactive) | 0.726 µM (active) | – | > 100 µM (inactive) | –
O=c1nc2n3c4c(cccc4nc-2c(=O)[nH]1)CCC3 | > 100 µM (inactive) | > 100 µM (inactive) | > 100 µM (inactive) | > 100 µM (inactive) | > 100 µM (inactive) | – | > 100 µM (inactive) | 14 µM (inactive) | > 100 µM (inactive) | > 100 µM (inactive) | > 100 µM (inactive) | > 100 µM (inactive) | > 100 µM (inactive) | 47 µM (inactive) | > 100 µM (inactive) | > 100 µM (inactive) | > 100 µM (inactive) | – | 70.8 µM (inactive) | –
CC1N(C)C(=O)OC12CCN(CCCC(=O)c1ccc(F)cc1)CC2 (stereo not drawn) | > 100 µM (inactive) | > 100 µM (inactive) | > 100 µM (inactive) | > 100 µM (inactive) | – | > 100 µM (inactive) | > 100 µM (inactive) | > 100 µM (inactive) | > 100 µM (inactive) | > 100 µM (inactive) | > 100 µM (inactive) | > 100 µM (inactive) | > 100 µM (inactive) | > 100 µM (inactive) | > 100 µM (inactive) | > 100 µM (inactive) | > 100 µM (inactive) | – | > 100 µM (inactive) | –
O=C1NC(=O)C2(CCCCCC2)N1 | > 100 µM (inactive) | > 100 µM (inactive) | > 100 µM (inactive) | > 100 µM (inactive) | – | > 100 µM (inactive) | > 100 µM (inactive) | > 100 µM (inactive) | > 100 µM (inactive) | > 100 µM (inactive) | > 100 µM (inactive) | > 100 µM (inactive) | > 100 µM (inactive) | > 100 µM (inactive) | > 100 µM (inactive) | > 100 µM (inactive) | > 100 µM (inactive) | > 100 µM (inactive) | – | –
CN(C)CCOC(=O)c1ccc(N)cc1 | 48.2 µM (inactive) | 71.6 µM (inactive) | 33.8 µM (inactive) | 51.2 µM (inactive) | 16 µM (inactive) | 38.4 µM (inactive) | 64.4 µM (inactive) | 45.2 µM (inactive) | 74.1 µM (inactive) | 36.6 µM (inactive) | – | 25.6 µM (inactive) | 51.1 µM (inactive) | 67.3 µM (inactive) | 56.5 µM (inactive) | – | 28.7 µM (inactive) | 12.6 µM (inactive) | 39 µM (inactive) | –
CCOC(=O)c1c(C)n(Cc2ccccc2)c2c1cc(O)c1[nH]c3c(c12)CCCC3 | 5.47 µM (inactive) | 12.6 µM (inactive) | 2.58 µM (inactive) | 4.72 µM (inactive) | – | – | 3.65 µM (inactive) | 2.2 µM (inactive) | 10.4 µM (inactive) | 13.6 µM (inactive) | – | 3.98 µM (inactive) | 11.7 µM (inactive) | 5.85 µM (inactive) | 3.03 µM (inactive) | 1.95 µM (inactive) | 4.85 µM (inactive) | < 0.01 µM (active) | 2.41 µM (inactive) | –
c1ccc(CNCCN2CCNCC2)nc1 | > 100 µM (inactive) | – | > 100 µM (inactive) | > 100 µM (inactive) | – | > 100 µM (inactive) | > 100 µM (inactive) | > 100 µM (inactive) | > 100 µM (inactive) | > 100 µM (inactive) | 52 µM (inactive) | > 100 µM (inactive) | > 100 µM (inactive) | > 100 µM (inactive) | > 100 µM (inactive) | > 100 µM (inactive) | > 100 µM (inactive) | > 100 µM (inactive) | – | > 100 µM (inactive)
CN(N)/N=N/c1[nH]cnc1[N+](=O)[O-] | 31.8 µM (inactive) | > 100 µM (inactive) | 61.1 µM (inactive) | 35.4 µM (inactive) | > 100 µM (inactive) | > 100 µM (inactive) | 81.1 µM (inactive) | > 100 µM (inactive) | > 100 µM (inactive) | 51.2 µM (inactive) | > 100 µM (inactive) | > 100 µM (inactive) | > 100 µM (inactive) | > 100 µM (inactive) | – | 46.6 µM (inactive) | 39.2 µM (inactive) | – | 2.99 µM (inactive) | –
